Tested on: testosterone 5α-reductase
Assay: Testosterone 5α-reductase micro radioassay (crude nuclear fraction of ventral prostate)
Type: biochemical
Conditions: 0.1 mg/ml 17-alpha-estradiol, with or without 20 μg/ml UL-OHA; 37° C., 1 hour
Method: The effect of UL-OHA on inhibiting increase in testosterone 5α-reductase activity can be verified with a micro radioassay.
Biopsies of ventral prostate homogenized with 9 volumes of 0.1 M PBS are filtered through gauze and centrifuged at 3000 rpm for 10 minutes to obtain a crude nuclear fraction. The supernatant is discarded and the pellet resuspended in PBS. This process is repeated once again and the second suspension is used as enzyme solution for the assay.
1 mCi of [4-^14C] testosterone with 17-alpha-estradiol+UL-OHA (calculated for a final conc. of 0.1 mg/ml and 20 μg/ml respectively) and 17-alpha-estradiol (final conc. 0.1 mg/ml) are placed in test tubes and heated to dryness under nitrogen flow. 10 μl of 50 mM NADPH, 60 μl of PBS and 30 μl of testosterone 5α-reductase solution are added and the test tubes and incubated at 37° C. for 1 hour. Finally 0.4 ml of chloroform:methanol (1:2 v/v) are added in order to terminate the reaction and the mixture is centrifuged at 3000 rpm for 10 minutes. […]
The radioactive activity of each extract based on the resulting quantity of testosterone, 5α-dihydro-testosterone, 5α-androstan-3α,17β-diol and 5α-androstan-3β,17β-diol is measured by reading the intensity of isotope emission from the plates as described by Hamada K et al. (IFSCC Magazine 4(2):83-87, 2001). […]

With `C[C@]12CC[C@@H]3c4ccc(O)cc4CC[C@H]3[C@@H]1CC[C@H]2O` [17-alpha-estradiol] the “Percentage inhibition of testosterone conversion relative to the control (anti-androgenic activity)” value was 20%.
